We go through 25 molecules from patent publication US11730720B2, “ALK5 inhibitors” (THERAVANCE BIOPHARMA R&D IP, LLC, priority 2018, dated 2023).

The target of experiment [1] is T1, recombinant human ALK5 (TGF-βR1) protein (Homo sapiens, UniProt P36897).
T1 construct: purchased Life Technologies PR9075A
T1 sequence (P36897 34-503): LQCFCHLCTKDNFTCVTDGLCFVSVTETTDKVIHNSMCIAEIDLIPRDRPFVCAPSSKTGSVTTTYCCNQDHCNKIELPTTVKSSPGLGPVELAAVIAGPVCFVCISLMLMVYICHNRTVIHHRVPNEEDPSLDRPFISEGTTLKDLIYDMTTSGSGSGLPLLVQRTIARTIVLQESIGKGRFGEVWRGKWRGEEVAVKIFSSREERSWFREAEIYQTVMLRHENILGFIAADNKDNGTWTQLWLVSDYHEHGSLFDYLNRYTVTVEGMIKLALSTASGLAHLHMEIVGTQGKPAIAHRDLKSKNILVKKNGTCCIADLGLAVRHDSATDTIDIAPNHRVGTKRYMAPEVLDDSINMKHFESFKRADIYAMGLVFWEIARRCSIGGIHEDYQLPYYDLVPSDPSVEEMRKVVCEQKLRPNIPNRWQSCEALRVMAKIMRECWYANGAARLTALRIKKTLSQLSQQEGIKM
The experiment is described as follows: Biochemical ALK5 (TGF-βR1) assay to measure pKi (LANCE Ultra ULight kinase assay). As to conditions: apparent pKi, converted from pIC50 using the Cheng-Prusoff equation. In a few lines:
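TR-FRET kinase format: compound dose range 10 μM–25 pM equilibrated 60 min with human ALK5 and ULight-labelled topoisomerase 2α peptide in HEPES/MgCl2 buffer pH 7.5 with DTT. Reaction started with ATP (125 μM stock, 5× final), 60 min at 37° C, stopped with EDTA/Eu-anti-phospho antibody; pKi derived from pIC50 via Cheng-Prusoff.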

Experiment [2] has as its system TGF-β-stimulated SMAD3 phosphorylation in BEAS-2B cells. The experiment is described as follows: Cellular ALK5 potency assay, inhibition of TGF-β stimulated pSMAD3 formation in BEAS-2B cells. Type of experiment: cell-based. The conditions noted are these: Homo sapiens, inhibition of TGF-β (10 ng/mL) stimulated pSMAD3 formation, 1 hour compound incubation, read-out: BEAS2B pIC50 (converted). In a few lines:
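Phospho-SMAD3 was quantified by AlphaLISA in lysates of human lung epithelial BEAS-2B cells. Compound was added 1 h (37 °C, HEPES/BSA-supplemented HBSS) before a 30 min challenge with 10 ng/mL TGF-β. Values are pIC50 relative to stimulated cells without compound.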

Take `NC1CN(c2cnc3ccc(-c4c[nH]nc4-c4cc(Cl)ccc4F)nc3c2)C1` [Compound 1-52, 1-[6-[3-(5-chloro-2-fluoro-phenyl)-1H-pyrazol-4-yl]-1,5-naphthyridin-3-yl]azetidin-3-amine]: the Ki in experiment [1] is 0.0398 to 0.316 nM. Further, the IC50 in experiment [2] is no more than 20 nM.

Turning to `CNCCn1cc(-c2cnc3ccc(-c4nc[nH]c4-c4cc(Cl)c(F)cc4F)cc3c2)cn1` [Compound 22-2, 2-(4-(6-(5-(5-chloro-2,4-difluorophenyl)-1H-imidazol-4-yl)quinolin-3-yl)-1H-pyrazol-1-yl)-N-methylethan-1-amine], in experiment [1], the Ki was 0.0398 to 0.316 nM. Also, the IC50 in experiment [2] is 25.1 to 158 nM.

For `Fc1ccc(Cl)cc1-c1[nH]cnc1-c1ccc2ncc(-c3nc4n(n3)CCNC4)cc2c1` [Compound 17-13, 6-[5-(5-chloro-2-fluoro-phenyl)-1H-imidazol-4-yl]-3-(5,6,7,8-tetrahydro-[1,2,4]triazolo[1,5-a]pyrazin-2-yl)quinoline], the Ki in experiment [1] is 0.0398 to 0.316 nM. For the same molecule, the IC50 in experiment [2] was no more than 20 nM.

For the molecule `CCN1CCN(CCNc2cnc3ccc(-c4c[nH]nc4-c4cc(Cl)ccc4F)nc3c2)CC1` [Compound 1-11, 6-[3-(5-chloro-2-fluoro-phenyl)-1H-pyrazol-4-yl]-N-[2-(4-ethylpiperazin-1-yl)ethyl]-1,5-naphthyridin-3-amine], the Ki in experiment [1] was 0.0398 to 0.316 nM. Further, the IC50 in experiment [2] was no more than 20 nM.

In the case of `CC(C)N1CCN(CCNc2cnc3ccc(-c4nc[nH]c4-c4cccc(Cl)c4)cc3c2)CC1` [Compound 24-2, 6-(5-(3-chlorophenyl)-1H-imidazol-4-yl)-N-(2-(4-isopropylpiperazin-1-yl)ethyl)quinolin-3-amine], the Ki in experiment [1] is 0.398 to 3.16 nM. In addition, the IC50 in experiment [2] was 25.1 to 158 nM.

Turning to `CC(C)N1CC=C(c2cnc3ccc(-c4c[nH]nc4-c4cc(Cl)c(F)cc4F)nc3c2)C1` [Compound 6-44, 2-[3-(5-chloro-2,4-difluoro-phenyl)-1H-pyrazol-4-yl]-7-(1-isopropyl-2,5-dihydropyrrol-3-yl)-1,5-naphthyridine], in experiment [1], the Ki is 0.0398 to 0.316 nM. For the same molecule, the IC50 in experiment [2] was no more than 20 nM.

In the case of `N[C@@H]1CCCC[C@H]1n1cc(-c2cnc3ccc(-c4nc[nH]c4-c4ccc(F)c(F)c4)cc3c2)cn1` [Compound 23-3, (1R,2R)-2-(4-(6-(5-(3,4-difluorophenyl)-1H-imidazol-4-yl)quinolin-3-yl)-1H-pyrazol-1-yl)cyclohexan-1-amine], the Ki in experiment [1] was 0.0398 to 0.316 nM. Also, in experiment [2], the IC50 was 25.1 to 158 nM.

For `CC(C)OC(=O)[C@H]1CN(c2cnc3ccc(-c4c[nH]nc4-c4cc(Cl)ccc4F)nc3c2)CCN1` [Compound 1-68, isopropyl (2R)-4-[6-[3-(5-chloro-2-fluoro-phenyl)-1H-pyrazol-4-yl]-1,5-naphthyridin-3-yl]piperazine-2-carboxylate], the Ki in experiment [1] is 0.398 to 3.16 nM. The IC50 in experiment [2] is 25.1 to 158 nM.

`O=C(O)[C@@H]1CN(c2cnc3ccc(-c4nc[nH]c4-c4cc(Cl)ccc4F)nc3c2)CCN1` [Compound 2-13, (S)-4-(6-(5-(5-chloro-2-fluorophenyl)-1H-imidazol-4-yl)-1,5-naphthyridin-3-yl)piperazine-2-carboxylic acid]: the Ki in experiment [1] is 0.398 to 3.16 nM. Besides, the IC50 in experiment [2] is 200 to 1260 nM.

Turning to `Fc1cc(F)c(-c2n[nH]cc2-c2ccc3ncc(-c4nnn5c4CNCC5)cc3n2)cc1Cl` [Compound 6-57, 2-[3-(5-chloro-2,4-difluoro-phenyl)-1H-pyrazol-4-yl]-7-(4,5,6,7-tetrahydrotriazolo[1,5-a]pyrazin-3-yl)-1,5-naphthyridine], the Ki in experiment [1] was 0.398 to 3.16 nM. In addition, the IC50 in experiment [2] is 25.1 to 158 nM.

For `CN1CC=C(c2cnc3ccc(-c4c[nH]nc4-c4cc(Cl)c(F)cc4F)nc3c2)C1` [Compound 6-43, 2-(3-(5-chloro-2,4-difluorophenyl)-1H-pyrazol-4-yl)-7-(1-methyl-2,5-dihydro-1H-pyrrol-3-yl)-1,5-naphthyridine], in experiment [1], the Ki is 0.0398 to 0.316 nM. For the same molecule, the IC50 in experiment [2] is no more than 20 nM.

For the molecule `Fc1ccc(Cl)cc1-c1nc2ccccn2c1-c1ccc2ncc(N3CCCNCC3)cc2c1` [Compound 19-8, 6-[2-(5-chloro-2-fluoro-phenyl)imidazo[1,2-a]pyridin-3-yl]-3-(1,4-diazepan-1-yl)quinoline], in experiment [1], the Ki was 0.398 to 3.16 nM. Also, the IC50 in experiment [2] is 200 to 1260 nM.

`CNC(=O)C1CN(c2cnc3ccc(-c4c[nH]nc4-c4cc(Cl)ccc4F)nc3c2)CCN1` (racemic) [Compound 1-51, rac-(2R)-4-[6-[3-(5-chloro-2-fluoro-phenyl)-1H-pyrazol-4-yl]-1,5-naphthyridin-3-yl]-N-methyl-piperazine-2-carboxamide]: the Ki in experiment [1] is 0.0398 to 0.316 nM. Moreover, the IC50 in experiment [2] is 25.1 to 158 nM.

For the molecule `CN1CCN(C2CCN(c3cnc4ccc(-c5nn[nH]c5-c5cc(Cl)ccc5F)cc4c3)CC2)CC1` [Compound 18-6, 6-[5-(5-chloro-2-fluoro-phenyl)-1H-triazol-4-yl]-3-[4-(4-methylpiperazin-1-yl)-1-piperidyl]quinoline], the Ki in experiment [1] is 0.398 to 3.16 nM. Also, the IC50 in experiment [2] is 25.1 to 158 nM.

`Fc1ccc(Cl)cc1-c1n[nH]cc1-c1ccc2ncc(NCC3CN4CCN3CC4)cc2n1` (centres unmarked) [Compound 1-10, 6-[3-(5-chloro-2-fluoro-phenyl)-1H-pyrazol-4-yl]-N-(1,4-diazabicyclo[2.2.2]octan-2-ylmethyl)-1,5-naphthyridin-3-amine]: the Ki in experiment [1] was 0.0398 to 0.316 nM. In experiment [2], the IC50 was no more than 20 nM.

`Fc1ccc(Cl)cc1-c1n[nH]cc1-c1ccc2ncc(NC3CCNCC3)cc2n1` [Compound 1-24, 6-[3-(5-chloro-2-fluoro-phenyl)-1H-pyrazol-4-yl]-N-(4-piperidyl)-1,5-naphthyridin-3-amine]: the Ki in experiment [1] was 0.0398 to 0.316 nM. Besides, the IC50 in experiment [2] is 25.1 to 158 nM.

For `Fc1cc(F)c(-c2n[nH]cc2-c2ccc3ncc(-c4cn5c(n4)CNCC5)cc3n2)cc1Cl` [Compound 6-52, 2-[3-(5-chloro-2,4-difluoro-phenyl)-1H-pyrazol-4-yl]-7-(5,6,7,8-tetrahydroimidazo[1,2-a]pyrazin-2-yl)-1,5-naphthyridine], in experiment [1], the Ki was 0.0398 to 0.316 nM. Further, the IC50 in experiment [2] was 25.1 to 158 nM.

Consider `CNC1CN(c2cnc3ccc(-c4c[nH]nc4-c4cc(Cl)ccc4F)nc3c2)C1` [Compound 1-49, 1-(6-(3-(5-chloro-2-fluorophenyl)-1H-pyrazol-4-yl)-1,5-naphthyridin-3-yl)-N-methylazetidin-3-amine], for which the Ki in experiment [1] was 0.0398 to 0.316 nM. Moreover, in experiment [2], the IC50 is no more than 20 nM.

As for `COCc1cccc(-c2n[nH]cc2-c2ccc3ncc(C4=CCC(N(C)C)CC4)cc3n2)c1` (centres unmarked) [Compound 14-14, 4-(6-(3-(3-(methoxymethyl)phenyl)-1H-pyrazol-4-yl)-1,5-naphthyridin-3-yl)-N,N-dimethylcyclohex-3-en-1-amine], in experiment [1], the Ki is 0.0398 to 0.316 nM. Moreover, the IC50 in experiment [2] was 25.1 to 158 nM.

For `Fc1ccc(Cl)cc1-c1[nH]cnc1-c1ccc2ncc(-c3cnc4n3CCNC4)cc2c1` [Compound 17-10, 6-[5-(5-chloro-2-fluoro-phenyl)-1H-imidazol-4-yl]-3-(5,6,7,8-tetrahydroimidazo[1,2-a]pyrazin-3-yl)quinoline], the Ki in experiment [1] was 0.398 to 3.16 nM. Further, the IC50 in experiment [2] was 25.1 to 158 nM.

Turning to `NC1CCN(c2cnc3ccc(-c4c[nH]nc4-c4cc(Cl)c(F)cc4F)nc3c2)C1` (centres unmarked) [Compound 6-34, 1-[6-[3-(5-chloro-2,4-difluoro-phenyl)-1H-pyrazol-4-yl]-1,5-naphthyridin-3-yl]pyrrolidin-3-amine], the Ki in experiment [1] was no more than 0.0316 nM. The IC50 in experiment [2] is no more than 20 nM.

Consider `Fc1ccc(Cl)cc1-c1n[nH]cc1-c1ccc2ncc(N[C@@H]3CCNC3)cc2n1` [Compound 1-19, 6-[3-(5-chloro-2-fluoro-phenyl)-1H-pyrazol-4-yl]-N-[(3R)-pyrrolidin-3-yl]-1,5-naphthyridin-3-amine], for which the Ki in experiment [1] was 0.398 to 3.16 nM. Besides, in experiment [2], the IC50 is 25.1 to 158 nM.

Regarding `Fc1cc(F)c(-c2n[nH]cc2-c2ccc3ncccc3n2)cc1Cl` [Compound 6-71, 2-[3-(5-chloro-2,4-difluoro-phenyl)-1H-pyrazol-4-yl]-1,5-naphthyridine], in experiment [1], the Ki is 0.398 to 3.16 nM. In addition, the IC50 in experiment [2] is 25.1 to 158 nM.

Regarding `Fc1cc(F)c(-c2n[nH]cc2-c2ccc3ncc(NCCN4CCCC4)cc3n2)cc1Cl` [Compound 6-7, 6-[3-(5-chloro-2,4-difluoro-phenyl)-1H-pyrazol-4-yl]-N-(2-pyrrolidin-1-ylethyl)-1,5-naphthyridin-3-amine], the Ki in experiment [1] was 0.398 to 3.16 nM. In addition, the IC50 in experiment [2] was 25.1 to 158 nM.

As for `CN1CCN(c2ccc(Nc3cnc4ccc(-c5nc[nH]c5-c5cc(Cl)ccc5F)nc4c3)nc2)CC1` [Compound 2-1, 6-(5-(5-chloro-2-fluorophenyl)-1H-imidazol-4-yl)-N-(5-(4-methylpiperazin-1-yl)pyridin-2-yl)-1,5-naphthyridin-3-amine], the Ki in experiment [1] was 0.0398 to 0.316 nM. In experiment [2], the IC50 was 25.1 to 158 nM.
